Data reported in patent publication US20110287936A1, “GENE SWITCH COMPOSITIONS AND METHODS OF USE” (priority 2010, published 2011).

Columns and labels:
[1] = tested on: tetA promoter (PtetA)-lacZ reporter in E. coli strain KM3; type: cell-based; settings: L1 hits, 20 μg/ml
[2] = tested on: 35S PRO:3xTetOp:dsRED reporter with ESR(L13-2-23); assay: Rice callus RFP induction by sulfonylureas; type: in vivo; settings: for RFP Score: 20 hours, rice callus
Method: Mature seed of rice were surface sterilized and placed on callus induction medium (Chu (N6) salts, Eriksson's vitamins, 0.5 mg/L thiamine, 2 mg/L 2,4-D, 2.1 g/L proline, 30 g/L sucrose, 300 mg/L casein hydrolysate, and 100 mg/L myo-inositol, adjusted to pH 5.8). After one week, callus was transformed using Agrobacterium LBA4404, delivering the following T-DNA: • RB-35S PRO:3xTetOp:dsRED::pinII+35S PRO::Adh intron::ESR(L13-2-23)::UBI TERM+Sb-ALS PRO::HRA::pinII-LB
Transgenic events were visually selected as […] calli growing on 100 PPB ethametsulfuron. […] Non-fluorescing events were then transferred to plates of medium containing varying amounts of sulfonylureas (SU). For the control, there was no SU, with additional treatments containing 100 or 500 ppb chlorsulfuron, and 100 or 500 ppb ethametsulfuron, After 20 hours of the induction treatment, micrographs were taken at the same exposure and scored (see Example 7 for scoring criteria) as shown in the table below
(§1) The BSV::tetOp promoter and the MP1::tetOp promoter were synthesized and cloned into expression cassettes driving expression of the DsRED (RFP) gene for testing. For all comparisons of RFP expression, side-by-side comparisons were made within experiment by taking micrographs of the tissue at the same exposure and qualitatively ranking fluorescence intensity, assigning the scores in the table below. The DsRED protein is very stable (has a relatively long half-life), and even with low expression levels in the cell can accumulate over time.

[3] = tested on: BSV(AY) PRO::tetOp::ODP2 with ESR(3E3); assay: Inducible callus initiation from maize leaf pieces; type: in vivo; settings: 100 mg/L chlorsulfuron, two weeks
Method: Immature maize embryos from maize inbred PHN46 were transformed as describe in Example 5D using Agrobacterium comprising the following: • RB-BSV(AY) PRO::tetOp::Adh1 Intron::ODP2::pinII+35S ENH::ALS PRO::HRA::pinII+Ubi Pro::ESR(3E3)::pinII-LB.
Events were selected on 100 μg/l chlorsulfuron, and plantlets were regenerated in the absence of the SU compound. When the plantlets were approximately 20 cm tall, the leaves were cut into approximately 2-4 mm cross-sections and placed on embryogenic culture medium+/−100 mg/L chlorsulfuron.

[4] = tested on: BSV:tetOp or 35S:tetOp::dsRed with Ubi:ESR(3E3); assay: Maize callus RFP de-repression on chlorsulfuron selection; type: in vivo
Excerpt: as §1
Maize immature embryos were transformed with Agrobacterium as generally described in Example 5D. Transformants were generated that contained one of the two T-DNAs shown below: • RB-BSV:tetOp::Adh Intron::dsRed+ALS:HRA+Ubi:ESR(3E3)-LB • RB-35S:tetOp::Adh intron::dsRed+ALS:HRA+Ubi::ESR(3E3)-LB
Selection of transgenic events was performed using 30, 100, or 500 μg/L chlorsulfuron.

[5] = tested on: 35S/TripleOp/Pro::RFP reporter; assay: Maize callus and seedling RFP de-repression; type: in vivo; settings: 1 mg/l doxycycline; callus and plants with UBI::TetR expression cassette
[6] = tested on: 35S PRO:tetOp::moCRE with ESR(L13-2-23), lox66/lox71 AmCYAN/ZsYELLOW reporter; assay: Ethametsulfuron-induced Cre inversion in maize callus; settings: 250 μg/L ethametsulfuron, one week
[7] = tested on: 35S PRO:tetOp::moCRE with ESR(L13-2-23), loxP AmCYAN/ZsYELLOW reporter; assay: Ethametsulfuron-induced Cre excision in maize callus; settings: maize calli, 250 μg/L ethametsulfuron, one week
Method: (§2) Herbicide-resistant, blue fluorescent co-transformed calli were recovered and tested for SU-inducible excision. Calli were split onto media+/−250 μg/L ethametsulfuron.

[8] = tested on: 35S PRO:tetOp::moCRE with ESR(L13-2-23), loxP AmCYAN/ZsYELLOW reporter; assay: Ethametsulfuron-induced Cre excision in rice callus; settings: rice calli, 250 μg/L ethametsulfuron, one week
Method: as §2

With `CCOC(=O)c1ccccc1S(=O)(=O)NC(=O)Nc1nc(Cl)cc(OC)n1` [chlorimuron, Chlorimuron-ethyl] the “potency as activator compared with Harmony®” value [1] was “more potent activators than the starting ligand Harmony®”.

With `COc1nc(C)nc(NC(=O)NS(=O)(=O)c2ccccc2Cl)n1` [chlorsulfuron, 2 chloro N((4 methoxy 6 methy 1,3,5 triazine 2 yl)aminocarbonyl)benzenesulfonamide] the “RFP Score” value ([2]; 100 ppb) was 0-1, the “RFP Score” value ([2]; 500 ppb) was 2-3 and the “potency as activator compared with Harmony®” value [1] was “more potent activators than the starting ligand Harmony®”. For the same compound, the “callus initiation from leaf pieces” value [3] was “producing callus from the leaf segments”, the “RFP Score” value ([4]; 30 μg/l, six weeks) was 0 and the RFP fluorescence ([4]; 100 μg/l, six weeks) was “small sectors of RFP fluorescence were observed”. For the same compound, the RFP fluorescence ([4]; 500 μg/l, six weeks) was “large segments of the calli were brightly fluorescing” and the “activity as inducer of the ethametsulfuron repressor, fold less” value ([4]; in vivo) was “approximately 10 fold”.

`C[C@H]1c2cccc(O)c2C(=O)C2=C(O)[C@]3(O)C(=O)C(C(N)=O)=C(O)[C@@H](N(C)C)[C@@H]3[C@@H](O)[C@@H]21` [doxycycline] gave an induction period [5] of 5 to 6 days.

With `CCOc1nc(NC)nc(NC(=O)NS(=O)(=O)c2ccccc2C(=O)OC)n1` [ethametsulfuron, Ethametsulfuron-methyl] the SU-inducible inversion [6] was “sectors exhibiting only yellow fluorescent”, the “level of RFP induction, comparison of ligands” value ([2]; 100 and 500 ppb) was “induced to a greater level than chlorsulfuron” and the “RFP Score” value ([2]; 100 ppb) was 1-2. For the same compound, the “RFP Score” value ([2]; 500 ppb) was 4, the SU-inducible excision [7] was “yellow fluorescent sectors were observed” and the SU-inducible excision [8] was “yellow fluorescent sectors were observed”. The “potency as activator compared with Harmony®” value [1] was “more potent activators than the starting ligand Harmony®”.
